The results in this text go back to US10173991B2, “Sulfone amide linked benzothiazole inhibitors of endothelial lipase” (BRISTOL-MYERS SQUIBB COMPANY, priority 2014, dated 2019).

The target in one test is Endothelial lipase (EL) (Homo sapiens (Human), UniProt Q9Y5X9). Put plainly: Endothelial lipase (EL) enzymatic assay with fluorescent substrate A10070 in DMPG vesicles. In kind it is biochemical.
Chain of Endothelial lipase (EL) (Q9Y5X9 21-500): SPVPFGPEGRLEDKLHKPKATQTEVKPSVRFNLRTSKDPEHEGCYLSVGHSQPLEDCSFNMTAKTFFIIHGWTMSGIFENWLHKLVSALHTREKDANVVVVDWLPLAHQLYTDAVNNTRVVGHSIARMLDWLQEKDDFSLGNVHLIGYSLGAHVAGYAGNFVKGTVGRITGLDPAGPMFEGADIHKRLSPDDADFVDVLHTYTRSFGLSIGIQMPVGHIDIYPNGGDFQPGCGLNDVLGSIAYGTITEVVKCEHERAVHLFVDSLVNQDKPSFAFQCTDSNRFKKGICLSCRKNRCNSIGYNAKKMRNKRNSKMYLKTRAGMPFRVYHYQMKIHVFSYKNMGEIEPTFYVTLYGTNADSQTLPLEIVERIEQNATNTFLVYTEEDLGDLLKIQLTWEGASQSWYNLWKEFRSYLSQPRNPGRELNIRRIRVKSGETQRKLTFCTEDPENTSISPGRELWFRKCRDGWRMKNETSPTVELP
Settings: not given
Put shortly: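 Compounds were preincubated with enzyme for 30 min at 37° C before FRET-substrate vesicles (A10070 in DMPG, 0.11 mole fraction) were added. Reaction rates were obtained from the 300–900 sec slope of fluorescence at 490/530 nm.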
As to `COCCS(=O)(=O)C(C(=O)NCC(=O)NC1CC1)c1nc2c(F)cc(-c3ccc(=O)n(C(C)C)c3)cc2s1` (stereo not shown) [Example 225, N-[(cyclopropyl-carbamoyl)methyl]-2-{4-fluoro-6-[6-oxo-1-(propan-2-yl)-1,6-dihydropyridin-3-yl]-1,3-benzothiazol-2-yl}-2-(2-methoxyethane-sulfonyl) acetamide], 88 nM corresponded to half-maximal inhibition (IC50).
On the same count and under the same terms, to `COCCS(=O)(=O)C(C(=O)NCC(=O)NC1CC1)c1nc2cc(-c3cccc(C(=O)N4CCN(C)CC4)c3)ccc2s1` (stereo not shown) [Example 397, N-[(cyclopropyl-carbamoyl)methyl]-2-(2-methoxyethane-sulfonyl)-2-{5-[3-(4-methylpiperazine-1-carbonyl)phenyl]-1,3-benzothiazol-2-yl}acetamide] belongs 19 nM; to `COCCS(=O)(=O)C(C(=O)NCC(=O)NC1CC1)c1nc2cc(C)c(-c3ccc(F)nc3)cc2s1` (stereo not shown) [Example 185, N-[(cyclopropyl-carbamoyl)methyl]-2-[6-(6-fluoropyridin-3-yl)-5-methyl-1,3-benzothiazol-2-yl]-2-(2-methoxyethane-sulfonyl) acetamide], 4 nM.
`COCCS(=O)(=O)C(C(=O)NCC(=O)NC1CC1)c1nc2cc(F)c(-c3ccc(NC(=O)OCc4ccccc4)nc3)cc2s1` (stereo not shown) [Example 551, benzyl N-{5-[2-({[(cyclopropyl-carbamoyl)methyl]carbamoyl}(2-methoxyethane-sulfonyl)methyl)-5-fluoro-1,3-benzothiazol-6-yl]pyridin-2-yl} carbamate] displayed a concentration for half-maximal inhibition (IC50) of 1 nM.
Still for that read-out and setting: to `O=C(CNC(=O)C(c1nc2cc(-c3ccc(F)nc3)ccc2s1)S(=O)(=O)Cc1ccc(F)cc1)NC1CC1` (stereo not shown) [Example 13, N-[(cyclopropyl-carbamoyl)methyl]-2-[(4-fluorophenyl)methanesulfonyl]-2-[5-(6-fluoropyridin-3-yl)-1,3-benzothiazol-2-yl]acetamide] belongs 15 nM; to `COCCS(=O)(=O)C(C(=O)NCC(=O)NC1CC1)c1nc2cc(-c3ccc(F)cc3)ccc2s1` (stereo not shown) [Example 135, N-[(cyclopropyl-carbamoyl)methyl]-2-[5-(4-fluorophenyl)-1,3-benzothiazol-2-yl]-2-(2-methoxyethane-sulfonyl) acetamide], 49 nM.
Consider `Cc1ncc(-c2ccc3nc(C(C(=O)NCC(=O)NC4CC4)S(=O)(=O)Cc4cccc(C#N)c4)sc3c2)cn1` (stereo not shown) [Example 21, 2-[(3-cyanophenyl)methanesulfonyl]-N-[(cyclopropyl-carbamoyl)methyl]-2-[6-(2-methylpyrimidin-5-yl)-1,3-benzothiazol-2-yl]acetamide], for which the IC50 was 145 nM.
On the same count and under the same terms, to `O=C(CNC(=O)C(c1nc2ccc(-c3cncnc3)cc2s1)S(=O)(=O)N1CCOCC1)NC1CC1` (stereo not shown) [Example 481, N-[(cyclopropyl-carbamoyl)methyl]-2-(morpholine-4-sulfonyl)-2-[6-(pyrimidin-5-yl)-1,3-benzothiazol-2-yl]acetamide] belongs 99 nM.
Same read-out and setting: to `COCCS(=O)(=O)C(C(=O)NCC(=O)NC1CC1)c1nc2cc(F)c(-c3ccc(-c4nnc(C)o4)cc3)cc2s1` (stereo not shown) [Example 147, N-[(cyclopropyl-carbamoyl)methyl]-2-{5-fluoro-6-[4-(5-methyl-1,3,4-oxadiazol-2-yl)phenyl]-1,3-benzothiazol-2-yl}-2-(2-methoxyethane-sulfonyl) acetamide] belongs 4 nM; to `COCCS(=O)(=O)C(C(=O)NCC(=O)NC1CC1)c1nc2cc(-c3ccc(Cl)cn3)ccc2s1` (stereo not shown) [Example 83, 2-[5-(5-chloropyridin-2-yl)-1,3-benzothiazol-2-yl]-N-[(cyclopropyl-carbamoyl)methyl]-2-(2-methoxyethane-sulfonyl)acetamide], 71 nM; to `COCCS(=O)(=O)C(C(=O)NCC(=O)NC1CC1)c1nc2cc(F)c(-c3ccc4c(c3)OCC(=O)N4)cc2s1` (stereo not shown) [Example 417, N-[(cyclopropyl-carbamoyl)methyl]-2-[5-fluoro-6-(3-oxo-3,4-dihydro-2H-1,4-benzoxazin-7-yl)-1,3-benzothiazol-2-yl]-2-(2-methoxyethane-sulfonyl)acetamide], 35 nM.
On the same count and under the same terms, the result for `COCCS(=O)(=O)C(C(=O)NCC(=O)NC1CC1)c1nc2cc(Cl)c(-c3ccn(C)c(=O)c3)cc2s1` (stereo not shown) [Example 108, 2-[5-chloro-6-(1-methyl-2-oxo-1,2-dihydropyridin-4-yl)-1,3-benzothiazol-2-yl]-N-[(cyclopropyl-carbamoyl)methyl]-2-(2-methoxyethane-sulfonyl)acetamide] reads 51 nM; that for `C=CCS(=O)(=O)C(C(=O)NCC(=O)NC1CC1)c1nc2ccc(-c3ccc(F)nc3)cc2s1` (stereo not shown) [Example 59, N-[(cyclopropyl-carbamoyl)methyl]-2-[6-(6-fluoropyridin-3-yl)-1,3-benzothiazol-2-yl]-2-(prop-2-ene-1-sulfonyl) acetamide], 20 nM.
Turning to `O=C(CNC(=O)C(c1nc2ccc(-c3ccc(OCC4CC4)nc3)cc2s1)S(=O)(=O)Cc1ccc(F)cc1)NC1CC1` (stereo not shown) [Example 205, N-[(cyclopropyl-carbamoyl)methyl]-2-{6-[6-(cyclopropyl-methoxy)pyridin-3-yl]-1,3-benzothiazol-2-yl}-2[(4-fluorophenyl)methanesulfonyl] acetamide], the IC50 came out at 8 nM.
`COCCS(=O)(=O)C(C(=O)NCC(=O)NCCOc1ccccc1)c1nc2ccc(-c3ccc(F)nc3)cc2s1` (stereo not shown) [Example 380, 2-[6-(6-fluoropyridin-3-yl)-1,3-benzothiazol-2-yl]-2-(2-methoxyethane-sulfonyl)-N-{[(2-phenoxyethyl)carbamoyl]methyl} acetamide] showed a 50% inhibitory concentration (IC50) of 1 nM.
On the same count and under the same terms, the result for `CS(=O)(=O)C(C(=O)NCC(=O)NC1CC1)c1nc2cc(-c3ccc(F)nc3)c(F)cc2s1` (stereo not shown) [Example 359, N-[(cyclopropyl-carbamoyl)methyl]-2-[6-fluoro-5-(6-fluoropyridin-3-yl)-1,3-benzothiazol-2-yl]-2-methanesulfonyl-acetamide] reads 7 nM.
As for `COCCS(=O)(=O)C(C(=O)NCC(=O)NC1CC1)c1nc2cc(-c3ccc(F)nc3F)ccc2s1` (stereo not shown) [Example 68, N-[(cyclopropyl-carbamoyl)methyl]-2-[5-(2,6-difluoropyridin-3-yl)-1,3-benzothiazol-2-yl]-2-(2-methoxyethane-sulfonyl) acetamide], the IC50 came to 19 nM.
Still for that read-out and setting: to `CC(=O)Nc1ccc(-c2ccc3nc(C(C(=O)NCC(=O)NC4CC4)S(C)(=O)=O)sc3c2)cc1` (stereo not shown) [Example 102, N-[(cyclopropyl-carbamoyl)methyl]-2-[6-(4-acetamidophenyl)-1,3-benzothiazol-2-yl]-2-methanesulfonyl-acetamide] belongs 14 nM.
Consider `COCCNC(=O)CNC(=O)C(c1nc2ccc(-c3ccc(F)nc3)cc2s1)S(=O)(=O)CCOC` (stereo not shown) [Example 379, 2-[6-(6-fluoropyridin-3-yl)-1,3-benzothiazol-2-yl]-2-(2-methoxyethane-sulfonyl)-N-{[(2-methoxyethyl)carbamoyl]methyl} acetamide], for which the 50% inhibitory concentration (IC50) amounted to 108 nM.
Same read-out and setting: the result for `COC(=O)Nc1cccc(-c2cc(F)c3nc(C(C(=O)NCC(=O)NC4CC4)S(=O)(=O)N(C)C)sc3c2)c1` (stereo not shown) [Example 503, methyl N-{3-[2-({[(cyclopropyl-carbamoyl)methyl]carbamoyl} (dimethyl-sulfamoyl)methyl)-4-fluoro-1,3-benzothiazol-6-yl]phenyl} carbamate] reads 21 nM; that for `COCCOC(=O)Nc1ccc(-c2cc3sc(C(C(=O)NCC(=O)NC4CC4)S(=O)(=O)CCOC)nc3cc2F)cc1` (stereo not shown) [Example 535, 2-methoxyethyl N-{4-[2-({[(cyclopropyl-carbamoyl)methyl]carbamoyl}(2-methoxyethane-sulfonyl)methyl)-5-fluoro-1,3-benzothiazol-6-yl]phenyl} carbamate], 4 nM.
The compound `CC(C)S(=O)(=O)C(C(=O)NCC(=O)NC1CC1)c1nc2cc(F)c(-c3ccc4cnn(C)c4c3)cc2s1` (stereo not shown) [Example 237, N-[(cyclopropyl-carbamoyl)methyl]-2-[5-fluoro-6-(1-methyl-1H-indazol-6-yl)-1,3-benzothiazol-2-yl]-2-(propane-2-sulfonyl) acetamide] had an IC50 of 5 nM. The IC50 values of the last two compounds are within 1.5-fold of each other.
On the same count and under the same terms, to `COCCS(=O)(=O)C(C(=O)NCC(=O)NC1CC1)c1nc2cc(-c3ccncc3Cl)ccc2s1` (stereo not shown) [Example 80, 2-[5-(3-chloropyridin-4-yl)-1,3-benzothiazol-2-yl]-N-[(cyclopropyl-carbamoyl)methyl]-2-(2-methoxyethane-sulfonyl) acetamide] belongs 49 nM.
The same measure, in the same setting: the result for `COCCS(=O)(=O)C(C(=O)NCC(=O)NC1CC1)c1nc2cc(-c3ccc(C(F)(F)F)nc3)ccc2s1` (stereo not shown) [Example 66] reads 12 nM.
On the same count and under the same terms, the result for `CS(=O)(=O)C(C(=O)NCC(=O)NC1CC1)c1nc2ccc(-c3ccc(F)nc3)cc2s1` (stereo not shown) [Example 57, N-[(cyclopropyl-carbamoyl)methyl]-2-[6-(6-fluoropyridin-3-yl)-1,3-benzothiazol-2-yl]-2-methanesulfonyl-acetamide] reads 47 nM; that for `CN(C)S(=O)(=O)C(C(=O)NCC(=O)NC1CC1)c1nc2ccc(-c3ccc(F)nc3)cc2s1` (stereo not shown) [Example 484, N-[(cyclopropyl-carbamoyl)methyl]-2-(dimethyl-sulfamoyl)-2-[6-(6-fluoropyridin-3-yl)-1,3-benzothiazol-2-yl]acetamide], 7 nM; that for `COCCS(=O)(=O)C(C(=O)NCC(=O)NC1CC1)c1nc2cc(C(=O)OC(C)(C)C)ccc2s1` (stereo not shown) [Example 427, tert-butyl 2-({[(cyclopropyl-carbamoyl)methyl]carbamoyl}(2-methoxyethane-sulfonyl)methyl)-1,3-benzothiazole-5-carboxylate], 66 nM.

The same test, now with this note: reference compounds; EL from conditioned media of HT-1080 cells; 30 min preincubation at 37° C.
The compound `CC(C)c1cc(CNC(=O)C(C)(C)c2nc3ccc(-c4ccccc4)cc3s2)on1` [Reference 2, N-((3-Isopropylisoxazol-5-yl)methyl)-2-methyl-2-(6-phenylbenzo[d]thiazol-2-yl)propanamide, reference compound] showed an IC50 above 62000 nM.

In general, IC50 refers to the concentration that gives 50% inhibition. The low end stands for inhibition by little substance, the high end for a need for much substance.
